This passage reports T/C results from PubChem BioAssay AID248 (DTP/NCI, 2004).

The structures appear in SMILES notation. Values joined by “and” are separate entries in the source; they are usually repeats but may differ in a detail not shown here. Identical values can stand only once. Toxic doses and inconclusive results are not listed.

The test system of this assay is L1210 leukemia ip in BDF1 mice, survival T/C. The experiment in a line: NCI In Vivo Anticancer Drug Screen. Data for tumor model L1210 Leukemia (intraperitoneal) in B6D2F1 (BDF1) mice. As to conditions: endpoint: mean survival time, higher = longer survival. In short, it runs like this:
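Mice bearing the transplanted tumor received compound or vehicle. Survival of the treated group was divided by that of the vehicle-treated control group to give the ratio.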

The mark [1] stands for this setting: dose: 100.0 mg/kg/injection, schedule: Q01DX001 (ip), vehicle: saline with Tween-80.
The mark [2] stands for this setting: dose: 100.0 mg/kg/injection, schedule: Q04DX003 (ip), vehicle: saline with Tween-80.
Where [3] appears, read: dose: 200.0 mg/kg/injection, schedule: Q04DX003 (ip), vehicle: saline with Tween-80.
[4] abbreviates: dose: 400.0 mg/kg/injection, schedule: Q04DX003 (ip), vehicle: saline with Tween-80.
[5] abbreviates: dose: 100.0 mg/kg/injection, schedule: Q01DX001 (ip), vehicle: saline.
Setting [6] is: dose: 200.0 mg/kg/injection, schedule: Q01DX001 (ip), vehicle: saline.
Where [7] appears, read: dose: 50.0 mg/kg/injection, schedule: Q04DX003 (ip), vehicle: saline.
Setting [8] is: dose: 100.0 mg/kg/injection, schedule: Q04DX003 (ip), vehicle: saline.
The mark [9] stands for this setting: dose: 200.0 mg/kg/injection, schedule: Q04DX003 (ip), vehicle: saline.
[10] abbreviates: dose: 100.0 mg/kg/injection, schedule: Q04DX002 (ip), vehicle: Klucel (hydroxypropylcellulose) (HPC).
[11] abbreviates: dose: 200.0 mg/kg/injection, schedule: Q04DX002 (ip), vehicle: Klucel (hydroxypropylcellulose) (HPC).
Setting [12] is: dose: 400.0 mg/kg/injection, schedule: Q04DX002 (ip), vehicle: Klucel (hydroxypropylcellulose) (HPC).
Setting [13] is: dose: 100.0 mg/kg/injection, schedule: Q01DX009 (ip), vehicle: saline with Tween-80.
The mark [14] stands for this setting: dose: 200.0 mg/kg/injection, schedule: Q01DX009 (ip), vehicle: saline with Tween-80.
[15] abbreviates: dose: 400.0 mg/kg/injection, schedule: Q01DX009 (ip), vehicle: saline with Tween-80.
[16] abbreviates: dose: 100.0 mg/kg/injection, schedule: Q01DX009 (ip), vehicle: Klucel (hydroxypropylcellulose) (HPC).
[17] abbreviates: dose: 200.0 mg/kg/injection, schedule: Q01DX009 (ip), vehicle: Klucel (hydroxypropylcellulose) (HPC).
Setting [18] is: dose: 400.0 mg/kg/injection, schedule: Q01DX009 (ip), vehicle: Klucel (hydroxypropylcellulose) (HPC).

Consider `Cc1nc(N)[nH]c(=O)c1CCCNC(=O)c1ccc(C(=O)O)cc1`, for which the T/C (dose: 25.0 mg/kg/injection, schedule: Q01DX001 (ip), vehicle: saline with Tween-80) is 90 % of control; the T/C (dose: 50.0 mg/kg/injection, schedule: Q01DX001 (ip), vehicle: saline with Tween-80) is 97 % of control; the T/C under setting [1] is 93 % of control.
In the case of `CC(=O)N(C)c1ccc(C)cc1C`, the T/C is, setting by setting: under setting [2], 104 % of control; under setting [3], 98 % of control; under setting [4], 93 % of control.
In the case of `CCc1c(CC(=O)O)c2cc(C)ccc2n1Cc1ccc(Cl)cc1`, the T/C by setting is: (dose: 12.5 mg/kg/injection, schedule: Q01DX Z (ip), vehicle: saline) 95 % of control and 96 % of control; (dose: 24.0 mg/kg/injection, schedule: Q01DX Z (ip), vehicle: carboxymethylcellulose (CMC)) 91 % of control; (dose: 25.0 mg/kg/injection, schedule: Q01DX Z (ip), vehicle: saline) 103 % of control and 100 % of control; (dose: 36.0 mg/kg/injection, schedule: Q01DX Z (ip), vehicle: carboxymethylcellulose (CMC)) 92 % of control; (dose: 50.0 mg/kg/injection, schedule: Q01DX Z (ip), vehicle: saline) 113 % of control and 102 % of control; (dose: 54.0 mg/kg/injection, schedule: Q01DX Z (ip), vehicle: carboxymethylcellulose (CMC)) 95 % of control. The T/C by setting is: (dose: 100.0 mg/kg/injection, schedule: Q01DX Z (ip), vehicle: saline) 95 % of control and 93 % of control; (dose: 162.0 mg/kg/injection, schedule: Q01DX Z (ip), vehicle: carboxymethylcellulose (CMC)) 94 % of control; (dose: 324.0 mg/kg/injection, schedule: Q01DX Z (ip), vehicle: carboxymethylcellulose (CMC)) 88 % of control.
For the molecule `O=C1CCN(S(=O)(=O)c2ccccc2)c2ccccc21`, the T/C under setting [5] is 94 % of control; the T/C under setting [6] is 94 % of control; the T/C (dose: 400.0 mg/kg/injection, schedule: Q01DX001 (ip), vehicle: saline) was 92 % of control.
With `COc1cccc(/C=N\O)c1`, the T/C was 98 % of control (dose: 50.0 mg/kg/injection, schedule: Q01DX009 (ip), vehicle: saline); 95 % of control under setting [7]; 100 % of control (dose: 100.0 mg/kg/injection, schedule: Q01DX009 (ip), vehicle: saline); 95 % of control under setting [8]; 96 % of control (dose: 200.0 mg/kg/injection, schedule: Q01DX009 (ip), vehicle: saline); 101 % of control under setting [9]. The T/C is 95 % of control (dose: 400.0 mg/kg/injection, schedule: Q01DX009 (ip), vehicle: saline) and 95 % of control (dose: 400.0 mg/kg/injection, schedule: Q04DX003 (ip), vehicle: saline).
`CC(=O)c1ccc(SC(=O)N(C)C)cc1`: the T/C under setting [2] was 98 % of control, the T/C under setting [3] was 93 % of control and the T/C under setting [4] was 97 % of control.
Regarding `COc1ccc(C(=O)NCc2cccs2)cc1`, the T/C under setting [10] is 91 % of control, the T/C under setting [11] was 102 % of control and the T/C under setting [12] was 97 % of control.
`O=C(c1ccccc1)C1CCCC1`: the T/C reads like this: under setting [10], 89 % of control; under setting [11], 105 % of control.
Consider `OC1C=Cc2ccccc21` (stereo not given), for which the T/C is 97 % of control (dose: 100.0 mg/kg/injection, schedule: Q04DX002 (ip), vehicle: other) and 97 % of control (dose: 200.0 mg/kg/injection, schedule: Q04DX002 (ip), vehicle: other).
As to `NC(=S)c1cn(C2OC(CO)C(O)C2O)c2ncncc12` (stereo not given), the T/C is, setting by setting: (dose: 100.0 mg/kg/injection, schedule: Q01DX005 (ip), vehicle: saline) 164 % of control; (dose: 200.0 mg/kg/injection, schedule: Q01DX005 (ip), vehicle: saline) 167 % of control.
`O=[N+]([O-])c1cc(Cl)ccc1S(=O)(=O)F`: the T/C reads like this: (dose: 100.0 mg/kg/injection, schedule: Q04DX003 (ip), vehicle: carboxymethylcellulose (CMC)) 103 % of control; (dose: 200.0 mg/kg/injection, schedule: Q04DX003 (ip), vehicle: carboxymethylcellulose (CMC)) 94 % of control.
As to `CCN1CCC(CCOC)(CN2c3ccccc3Sc3ccccc32)C1` (stereo not given), the T/C (dose: 12.5 mg/kg/injection, schedule: Q04DX003 (ip), vehicle: saline) was 95 % of control; the T/C (dose: 25.0 mg/kg/injection, schedule: Q04DX003 (ip), vehicle: saline) is 97 % of control; the T/C under setting [7] is 104 % of control.
On to `CCOC(=O)N/N=C/c1cccc([N+](=O)[O-])c1`, for which the T/C (dose: 75.0 mg/kg/injection, schedule: Q01DX001 (ip), vehicle: saline) is 104 % of control; the T/C (dose: 150.0 mg/kg/injection, schedule: Q01DX001 (ip), vehicle: saline) is 100 % of control; the T/C (dose: 300.0 mg/kg/injection, schedule: Q01DX001 (ip), vehicle: saline) was 101 % of control.
In the case of `CCOC(=O)Nc1cc(NCc2ccccc2)c(N)c(N)n1`, the T/C is, setting by setting: under setting [5], 96 % of control; under setting [6], 97 % of control.
With `C[CH2][Ge]([CH2]C)[CH2]C.C[CH2][Ge]([CH2]C)[CH2]C`, the T/C runs as follows: under setting [1], 94 % of control; (dose: 100.0 mg/kg/injection, schedule: Q04DX002 (ip), vehicle: saline with Tween-80) 95 % of control; (dose: 200.0 mg/kg/injection, schedule: Q01DX001 (ip), vehicle: saline with Tween-80) 90 % of control; (dose: 200.0 mg/kg/injection, schedule: Q04DX002 (ip), vehicle: saline with Tween-80) 95 % of control; (dose: 400.0 mg/kg/injection, schedule: Q04DX002 (ip), vehicle: saline with Tween-80) 92 % of control.
For `C=CCC(CC)C(=O)Cl` (stereo not given), the T/C under setting [13] was 104 % of control; the T/C under setting [2] was 94 % of control; the T/C under setting [14] is 91 % of control; the T/C under setting [3] is 94 % of control; the T/C under setting [15] was 91 % of control; the T/C under setting [4] was 102 % of control.
For `CC(=O)c1cccc(NC(=O)Nc2ccc(I)cc2)c1`, the T/C was 97 % of control under setting [16], 96 % of control under setting [17] and 97 % of control under setting [18].
`CCc1c[n+]([O-])c(C)cc1C(=O)O`: the T/C is, setting by setting: under setting [16], 92 % of control; (dose: 100.0 mg/kg/injection, schedule: Q04DX003 (ip), vehicle: Klucel (hydroxypropylcellulose) (HPC)) 97 % of control; under setting [17], 92 % of control; (dose: 200.0 mg/kg/injection, schedule: Q04DX003 (ip), vehicle: Klucel (hydroxypropylcellulose) (HPC)) 95 % of control; under setting [18], 92 % of control; (dose: 400.0 mg/kg/injection, schedule: Q04DX003 (ip), vehicle: Klucel (hydroxypropylcellulose) (HPC)) 95 % of control.
With `CN(C)C(=NN)N(C)C`, the T/C by setting is: under setting [7], 105 % of control; under setting [8], 100 % of control; under setting [9], 100 % of control.
Turning to `CC1(C)C2CCCC1(CCOC(=O)COc1cc(Cl)c(Cl)cc1Cl)C2` (stereo not given), the T/C is 98 % of control under setting [10], 91 % of control under setting [11] and 88 % of control under setting [12].
For `CC(=O)C(C)(C)O`, the T/C is, setting by setting: under setting [13], 90 % of control; under setting [14], 87 % of control; under setting [15], 92 % of control.
For the molecule `O=C1NC(c2cccs2)N2C(=O)NC(c3cccs3)N12` (stereo not given), the T/C (dose: 100.0 mg/kg/injection, schedule: Q04DX002 (ip), vehicle: gum acacia) is 105 % of control; the T/C (dose: 200.0 mg/kg/injection, schedule: Q04DX002 (ip), vehicle: gum acacia) is 109 % of control; the T/C (dose: 400.0 mg/kg/injection, schedule: Q04DX002 (ip), vehicle: gum acacia) was 112 % of control.
